Here are results for five molecules from US7989496B2, “Transdermal delivery of ketoprofen polar derivatives” (Noven Pharmaceuticals, Inc., priority 2006, dated 2011).

The nature of this data set: Human cadaver skin permeation study in modified Franz diffusion cells. The note with it: for 72 hr Cumulative Permeation: drug-in-adhesive formulation, human cadaver stratum corneum, Franz cells, 32° C.; for transdermal delivery rate compared with ketoprofen: previous work by the inventor on non-polar ketoprofen derivatives; for delivery rate (average flux through cadaver skin), FIG. 2: ketoprofen, polar and non-polar derivatives.

`CCOC(=O)C(C)c1cccc(C(=O)c2ccccc2)c1` (stereo not shown) [Ketoprofen Ethyl Ester]: the 72 hr Cumulative Permeation came out at 170 µg/cm² and the “transdermal delivery rate compared with ketoprofen” value is “lower delivery rates than ketoprofen”.
In the case of `COC(=O)C(C)c1cccc(C(=O)c2ccccc2)c1` (stereo not shown) [methyl ester of ketoprofen], the “transdermal delivery rate compared with ketoprofen” value is reported as “lower delivery rates than ketoprofen”. For the same molecule, where the note is “non-polar ketoprofen derivatives, approximate 84 hour time period, cadaver skin in Franz cells”, the “delivery rate (average flux through cadaver skin), FIG. 1” value is “faster delivery rate than each of the ethyl ester and isopropyl ester”.
Regarding `CC(C)OC(=O)C(C)c1cccc(C(=O)c2ccccc2)c1` (stereo not shown) [Ketoprofen Isopropyl Ester], the 72 hr Cumulative Permeation came to 61.2 µg/cm² and the “transdermal delivery rate compared with ketoprofen” value is recorded as “lower delivery rates than ketoprofen”.
Regarding `CC(C(=O)O)c1cccc(C(=O)c2ccccc2)c1` (stereo not shown) [Ketoprofen, 2-(3-benzoyl-phenyl)-propionic acid], under “cadaver skin in Franz cells”, the “delivery rate (average flux through cadaver skin), FIG. 2” value was “highest delivery rate”. Further, the “skin permeation over 72 hours” value (over 72 hours) is “about 1110 μg/cm^2”.
`CC(C(=O)OCC(O)CO)c1cccc(C(=O)c2ccccc2)c1` (stereo not shown) [Ketoprofen Monoglycerol Ester] had a 72 hr Cumulative Permeation of 214 µg/cm². Further, the “delivery rate (average flux through cadaver skin), FIG. 2” value (cadaver skin in Franz cells) was “faster delivery rate than each of the non-polar ester derivatives tested”.
